“Also recorded” adds a separate entry of the source. Like-named read-outs stand apart in the source and are kept apart here.
Columns and labels:
SR-B1 pathway = conditions: cited from earlier work
[1] = tested on: HCV2aCh (E2:G451R) mutant virus; assay: E2:G451R mutant virus, Taqman assay for viral RNA copies; assay type: cell-based, HCV genotype 2a; conditions: 0-500 nM; about 27.5 hours after virus exposure
Description: Two 24-well plates were seeded with 4×10^4 cells/well. The following day, cell culture supernatant was aspirated and cells were exposed to HCV2aCh wild type (black bars) and HCV2aCh (E2:G451R) mutant (blue bars), Approximately 250 μl of cell culture virus was added to each well (˜1×10^4 TCID/well or moi ˜0.25). Immediately after the addition of virus to the well, 2.5 μl of 100× concentration of compound was added to each well—and mixed multiple times with a 100 ul pipet tip—to achieve final compound dilutions: 0 nM, 5 nM, 15 nM, 50 nM, 150 nM, and 500 nM. Compound 5 was tested. Each plate was processed consecutively. After addition of virus and compound the plates were placed in the incubator for ˜3.5 hours (37° C., 5% CO2). Following incubation, the supernatant was replaced with fresh media (˜1 ml/well) and plates were returned to incubator. Twenty-four hours later (˜27.5 hours following virus exposure to the cells), cells were washed once with 1 ml of PBS and then the cells were processed for Taqman analysis.

HCV2aChLuc virus = assay: In vitro HCVcc entry assay: HCV2aChLuc virus infection of Huh7 cells, Renilla luciferase read-out; assay type: cell-based, HCV genotype 2a; conditions: for IC50: Hepatitis C virus
Jc1-luc virus [2] = assay: Synergy testing (Combination Index) in Jc1-luc system; assay type: cell-based, HCV genotype-2a
Description: (§1) Luciferase compound activity assay. Cell culture and luciferase compound assays were performed as previously described. See Wyles et al., J. Virol. 2007, 81:3005-8; Wyles et al., Antimicrob Agents Chemother. 2009, 53:2660-2; Grünberger et al., J. Infect. Dis. 2008, 197:42-5; Wyles et al., Antimicrob Agents Chemother, 2008, 52:1862-4. Briefly, Huh7.5.1 cells were seeded into 96-well plates at a density of 10,000 cells per well in 100 μl medium. After incubating overnight for attachment, Jc1-luc virus at an MOI 0.01 was added to wells with or without compounds at the specified concentrations. All conditions were run in triplicate. After 24 hours, medium was aspirated and replaced with 100 μl of complete medium containing an identical concentration of compound(s) followed by additional 48 hour incubation. The luciferase assay (Bright-Glo; Promega) was carried out according to the manufacturer's instructions. Luciferase activity was determined using a microplate luminometer (Veritas microplate luminometer; Turner Biosystems). The relative light units (RLU) for each condition were reported as the mean±the standard error of the mean for the three wells.
Synergy testing. The 50% effective concentration (EC50) of Compound 5 and other anti-HCV compounds was determined independently and used to set the range of concentrations for synergy experiments.
Data analysis. Determinations of compound interactions were quantified based on the median-effect principle described by Chou and Talalay. Chou T., Talalay P., Adv. Enzyme. Regul., 1984, 22:27-55. Combination indices (CIs) were determined using Calcusyn (Biosoft) for each experiment at the EC50, EC75, and EC90 levels. Five replicates per condition were evaluated. A CI<0.9 was considered synergistic, a CI≧0.9 and ≦[…] was considered additive, and a CI>1.1 was deemed antagonistic.

HCV = assay: Combination of viral entry inhibitor with HCV protease inhibitor VX-950; assay type: cell-based; conditions: fixed ratio based on EC50
Description: Additional combination studies of Compound 1 and Compound 5 with the HCV NS3 protease inhibitor VX-950 were conducted. Compound 1 and Compound 5 were tested singly and in combination with VX-950. The ratio of the two compounds, based on the compound's EC50, remained fixed across the dosing range. The potential cytotoxicity of individual compounds was assessed with a luminescent ATP-based cell viability assay (Cell Titer-Glo; Promega). Cell culture and luciferase compound assays were performed as previously described in Example 3.
Compound interactions were quantified by the approach described by Chou and Talalay, relying on the median effect principle and the multiple-drug effect equation. […] Isobolograms were generated for each combination tested and were used to determine the additivity, synergism or antagonism of inhibitor combinations. Combination indices (CI) were determined with Calcusyn (Biosoft) for each experiment at the EC50, EC75, and EC90 of the combination. By convention, a CI of <0.9 was considered synergistic, a CI of ≧0.9 or ≦1.1 was considered additive, and a CI of >1.1 was deemed antagonistic. […] Combination indices (CI) were determined with Calcusyn (Biosoft) for each experiment at the EC50, EC75, and EC90 of the combination. By convention, a CI of <0.9 was considered synergistic, a CI of ≧0.9 or ≦1.1 was considered additive, and a CI of >1.1 was deemed antagonistic.

Jc1-luc virus [3] = assay: Luciferase compound activity assay, Jc1-luc virus in Huh7.5.1 cells; assay type: cell-based, HCV genotype-2a; conditions: Hepatitis C virus, Huh-7.5.1
Description: Cell culture. Human hepatoma Huh-7.5.1 cells or Huh7 cells were grown at 37° C. and 5% CO2 in Dulbecco's modification of Eagle's medium supplemented with 2 mM L-glutamine, 1 mM Sodium pyruvate, 1× Non-essential amino acids mix, 100 units/ml penicillin, 100 μg/ml streptomycin, and 10% fetal bovine serum.
Virus plasmids. The chimeric full-length construct pFL-JC1, a GT2a/2a chimera consisting of structural genes from the J6CF isolate and non-structural genes from the JFH1 isolate, has been described previously. See Backes et al., J. Virol. 2010, 84:5775-89; Schaller et al., J. Virol., 2007, 81:4591-603; Koutsoudakis et al., J. Virol. 2006, 80:5308-20; Pietschmann et al., Proc. Natl. Acad. Sci., 2006, 103:7408-13. The firefly luciferase gene has been inserted to pFL-Jc1 to develop a plamid pFL-Jc1-luc for use as a reporter of viral replication. See Amako et al., J. Virol. 2009, 83:9237-46. Specifically, the pFL-JC1-luc construct can be utilized to develop an infectious HCV cell culture system to test novel HCV inhibitors, including entry inhibitors, in vitro using luciferase expression.
Preparation of infectious HCV. Jc1-luc or HCV2a/2aChRluc RNA was in vitro transcribed using T7 RiboMAX™ Express Large Scale RNA Production System (Promega). After RNA clean up (Qiagen RNeasy Mini kit), transfection was performed as previously described.
400 microliters of a Huh-7.5.1 or Huh7 cell suspension (10^7 cells/ml) was placed in a 0.4-cm cuvette with 10 μg of Jc1-luc or HCV2a/2aChRluc RNA and electroporated (Bio-Rad Gene Pulser System) using a single square wave at 260 V and 25 ms pulse length. The cells were plated in 15-cm tissue culture dishes (Corning) and supernatant was harvested and concentrated using a centrifugal filter (Amicon 100K, Millipore).
as §1, with “The relative light units (RLU) for each condition were reported as the mean±the standard error of the mean for the three wells.” left out

[4] = tested on: Bovine viral diarrhea virus (BVDV); assay: BVDV plaque-forming assay in MDBK cells; assay type: cell-based; conditions: even at 1 μM
Description: Bovine viral diarrhea virus (BVDV) is a closely related virus to HCV, belonging to the same Family, Flaviviridae. To validate the specificity of antiviral activity, BVDV infection was done with MDBK cells in the presence of compounds provided herein. MDBK cells (70 to 80% confluent) were infected with a diluted virus. Following 1 h of adsorption at 37° C., cells were washed once with DMEM, overlaid with 1.5% low-melting-point (LMP) agarose (Gibco-BRL) in MEM containing 5% HS, and incubated at 37° C. To assay for plaque-forming virus, after 3 days monolayers were fixed with 3.7% formaldehyde for 2 h at room temperature, the agarose plugs were removed, and the monolayers were stained with crystal violet.

COc1c(NC(=O)C(=O)c2ccc(OCCN3CCOCC3)c3ccccc23)cc(C(C)(C)C)cc1NS(C)(=O)=O [Compound 5, N-(5-tert-butyl-2-methoxy-3-(methylsulfonamido)phenyl)-2-(4-(2-morpholinoethoxy)naphthalen-1-yl)-2-oxoacetamide]
HDL levels (SR-B1 pathway; mice with a knock-out in the SR-B1 gene): not
HDL levels (SR-B1 pathway; mice): raised HDL levels
sensitivity of E2 mutant virus relative to wild-type virus, Taqman assay for viral RNA copies [1]: greater resistance
IC50 (HCV2aChLuc virus; Huh-7, 72 h, read-out: observed IC50, Huh7 cells co-incubated with HCV2aChRluc virus and compound for 3 days, repeated assays (n>30)): 0.05 to 0.5 nM
IC50 (HCV2aChLuc virus; Huh-7, read-out: Activity class (IC50), tested according to the method of Example 3): < 5 nM
inhibitory effect on HCV2aChLuc viral entry (HCV2aChLuc virus; Huh7 cells, 3 days): dose-dependent inhibitory effect; also recorded: dose-dependent inhibition
antagonism with any compound studied (Jc1-luc virus [2]): not antagonistic
Combination Index (CI) with 2′-C-methyladenosine (Jc1-luc virus [2]; at 50% effective dose (ED50)): 1.09
Combination Index (CI) with BILN2061 (Jc1-luc virus [2]; at 50% effective dose (ED50)): 0.98
Combination Index (CI) with interferon-alpha (Jc1-luc virus [2]; at 50% effective dose (ED50)): 1.00
interaction with VX1 (Jc1-luc virus [2]; at ED50, ED75 and ED90): consistent synergy
interaction with all compounds tested (Jc1-luc virus [2]; at ED75 and ED90): synergy
effect of combination with VX-950 (HCV): additive to slightly synergistic effects
EC50 (Jc1-luc virus [3]): 20.2 ± 1.37 nM
inhibitory effect on BVDV infection [4]: No significant inhibitory effect
